These results are taken from US10584108B2, “Therapeutic compounds and methods of use thereof” (KUALITY HERBCEUTICS LLC, priority 2015, dated 2020).

The subject of data set [1] is NNK-induced O^6-mG in A/J mouse lung tissues. The data set is described as follows: Test A: in vivo effect on NNK-induced O^6-mG in A/J mouse lung tissues. The following applies: A/J mice, compound 0.2 mg/g of diet for seven days, NNK 100 mg/kg i.p., lung tissue four hours after NNK. From the text: The ability of a compound of the invention to effect NNK-induced O^6-mG in A/J mouse lung tissues may be determined using pharmacological models which are well known to the art, or using Test A described below.
General Procedure of the In Vivo Effect on NNK-induced O^6-mG in A/J Mouse Lung Tissues
Five-six week old A/J mice were purchased from Jackson Lab. After one week of acclimatization, mice were randomized into different groups. Mice were given to the AIN-G powdered diet supplemented with the corresponding compound at a dose of 0.2 mg/g of diet for seven days. Subsequently, with the exception of mice in the negative control groups, animals were given NNK (100 mg/kg of bodyweight at the beginning of Day 7 via i.p. injection) (control mice will be given saline). Four hours NNK administration, mice in each group were euthanized with serum, urine, lung and liver tissues collected. O^6-mG DNA adducts in the lung tissues were quantified following established procedures (1, 2). The relative amount of reduction was calculated as the percentage of reduction relative the amount of O^6-mG in the NNK-treated positive control group.

Data set [2] relates to CYP1A1 mRNA in Hepe1c1c7 cells. The data set is described as follows: Test B: in vitro effect on CYP1A1 activation (CYP1A1 mRNA by q-RT PCR). Type of data set: cell-based. As to conditions: 5 μM in 0.5% DMSO, ratio treated to untreated, normalized to GAPDH mRNA. As for the experimental part: The ability of a compound of the invention to effect CYP1A1 activation may be determined using pharmacological models which are well known to the art, or using Test B described below.
General Procedures of the In Vitro Effect on CYP1A1 Activation
Hepe1c1c7 cells were cultured under standard conditions and seeded in 6-well plate. After complete attachment (12-24 hours after seeding), the cells were treated with the corresponding compounds at the concentration of 5 μM, supplemented in 0.5% DMSO. Cells were trypsinized and pelleted. mRNAs were isolated. The relative amount of CYP1A1 mRNA were quantified via q-RT PCR and normalized to the amount of GAPDH mRNA from the same sample. Induction of CYP1A1 mRNA is defined as the ratio of CYP1A1 mRNA between treated samples to the untreated sample.

The test system of data set [3] is NNK-induced lung tumorigenesis. The following applies: background statement, literature; cited from earlier work.
Data set [4] deals with NNK-induced DNA damage (O^6-mG). The following applies: background statement, literature; cited from earlier work.
The target of data set [5] is T1, aryl hydrocarbon receptors (Homo sapiens, UniProt P35869).
T1 sequence (P35869 11-848): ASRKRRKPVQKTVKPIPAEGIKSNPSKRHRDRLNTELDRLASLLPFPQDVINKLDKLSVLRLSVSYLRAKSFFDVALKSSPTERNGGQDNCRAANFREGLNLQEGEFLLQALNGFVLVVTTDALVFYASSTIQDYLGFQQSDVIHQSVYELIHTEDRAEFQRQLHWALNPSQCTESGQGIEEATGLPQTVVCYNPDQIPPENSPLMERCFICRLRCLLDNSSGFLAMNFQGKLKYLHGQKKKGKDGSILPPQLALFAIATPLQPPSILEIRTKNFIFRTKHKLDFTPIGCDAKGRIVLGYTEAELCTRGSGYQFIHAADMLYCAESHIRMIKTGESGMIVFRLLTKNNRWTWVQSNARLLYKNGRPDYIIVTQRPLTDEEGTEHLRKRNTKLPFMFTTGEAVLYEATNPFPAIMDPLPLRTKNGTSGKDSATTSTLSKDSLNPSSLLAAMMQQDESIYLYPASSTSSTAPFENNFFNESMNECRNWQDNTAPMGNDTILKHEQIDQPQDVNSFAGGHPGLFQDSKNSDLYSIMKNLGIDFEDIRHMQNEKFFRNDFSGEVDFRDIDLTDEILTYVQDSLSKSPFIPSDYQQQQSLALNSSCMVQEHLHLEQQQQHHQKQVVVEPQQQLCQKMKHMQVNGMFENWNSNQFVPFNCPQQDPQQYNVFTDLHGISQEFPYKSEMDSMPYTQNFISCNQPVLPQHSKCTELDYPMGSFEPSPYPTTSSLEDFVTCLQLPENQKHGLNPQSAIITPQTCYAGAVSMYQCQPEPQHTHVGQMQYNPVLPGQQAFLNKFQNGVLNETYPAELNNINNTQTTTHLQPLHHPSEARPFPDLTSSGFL
As to conditions: background statement, literature; cited from earlier work.

Turning to `COC1=CC(=O)OC(CCc2ccc3c(c2)OCO3)C1` (stereo not drawn), the “Relative amount of reduction in O^6-mG (mean ± SD) % in comparison to NNK-treated control” value in data set [1] came to 72.7 ± 6.6%. Still for that read-out and setting: to `COC1=CC(=O)O[C@H](CCc2ccc3c(c2)OCO3)C1` belongs 79.6 ± 1.5%. For the compound `COC1=CC(=O)OC(/C=C/c2ccc3c(c2)OCO3)C1` (stereo not drawn), the “Induction of CYP1A1 mRNA” value in data set [2] worked out at 0.26 ± 0.01. Also, the “Relative amount of reduction in O^6-mG (mean ± SD) % in comparison to NNK-treated control” value in data set [1] came out at 54.6 ± 1.2%. For `COC1=CC(=O)CC(CCc2ccc3c(c2)OCO3)C1` (stereo not drawn), in that order: 5.58 ± 0.55 and 63.7 ± 21.9%.

For the compound `COC1=CC(=O)OC(CCc2ccc(OC)c(O)c2)C1` (stereo not drawn), the “Induction of CYP1A1 mRNA” value in data set [2] worked out at 5.61 ± 0.40. Also, the “Relative amount of reduction in O^6-mG (mean ± SD) % in comparison to NNK-treated control” value in data set [1] is on record as −2.6 ± 14.7%. In the case of `COC1=CC(=O)CC(CCc2ccc3c(c2)CCC3)C1` (stereo not drawn), the “Relative amount of reduction in O^6-mG (mean ± SD) % in comparison to NNK-treated control” value in data set [1] came out at 11.8 ± 23.1%. For `COC1=CC(=O)OC(CCc2ccc3c(c2)OCO3)C1C` (stereo not drawn), the “Induction of CYP1A1 mRNA” value in data set [2] was determined as 2.16 ± 0.11. Consider `COC1=CC(=O)OC(CCc2ccc3c(c2)CCC3)C1` (stereo not drawn), for which, in data set [2], the “Induction of CYP1A1 mRNA” value is listed as 0.79 ± 0.02. The “Relative amount of reduction in O^6-mG (mean ± SD) % in comparison to NNK-treated control” value in data set [1] is reported as 29.7 ± 16.3%. For `COC1=C(C)C(=O)OC(CCc2ccc3c(c2)OCO3)C1` (stereo not drawn), in that order: 0.59 ± 0.04 and 65.3 ± 5.8%. For `O=C1C=C(O)CC(CCc2ccc3c(c2)OCO3)O1` (stereo not drawn), in that order: 1.20 ± 0.1 and 55.9 ± 19.7%. Regarding `O=C1C=CCC(CCc2ccc3c(c2)OCO3)O1` (stereo not drawn), in data set [2], the “Induction of CYP1A1 mRNA” value was 5.94 ± 0.22. Also, the “Relative amount of reduction in O^6-mG (mean ± SD) % in comparison to NNK-treated control” value in data set [1] came to 35.2 ± 31.8%. With `COC1=CC(=O)OC(C)(CCc2ccc3c(c2)OCO3)C1` (stereo not drawn), the “Induction of CYP1A1 mRNA” value in data set [2] stood at 2.49 ± 0.08. For the same compound, the “Relative amount of reduction in O^6-mG (mean ± SD) % in comparison to NNK-treated control” value in data set [1] was 56.2 ± 8.1%.

For the compound `COC1=CC(=O)OC(CCc2ccc3c(c2)OCCO3)C1` (stereo not drawn), the “Induction of CYP1A1 mRNA” value in data set [2] was determined as 3.73 ± 0.26. The “Relative amount of reduction in O^6-mG (mean ± SD) % in comparison to NNK-treated control” value in data set [1] is 3.24 ± 13.4%. Take `COC1=CC(=O)O[C@@H](CCc2ccc3c(c2)OCO3)C1` [(+)-Dihydromethysticin]: the “Block of NNK-induced lung tumorigenesis” value in data set [3] is given as “effectively block”. In addition, the “Inhibition of NNK-induced O^6-mG DNA damage” value in data set [4] is recorded as “can be inhibited”. `COC1=CC(=O)O[C@@H](CCc2ccc3c(c2)OCO3)C1` [dihydromethysticin]: the “Activation of aryl hydrocarbon receptors” value in data set [5] is “activate”.

Consider `COC1=CC(=O)O[C@@H](CCc2ccc3c(c2)OCO3)C1` [drawing 26], for which the “Induction of CYP1A1 mRNA” value in data set [2] stood at 1.88 ± 0.07. Further, the “Relative amount of reduction in O^6-mG (mean ± SD) % in comparison to NNK-treated control” value in data set [1] was found to be 76.9 ± 2.6%. For `COC1=CC(=O)OC(/C=C/c2ccc3c(c2)OCCO3)C1` (stereo not drawn) [drawing 40], in that order: 1.15 ± 0.02 and 5.2 ± 13.0%. Take `COC1=CC(=O)OC(/C=C/c2ccc3c(c2)OCCO3)C1` (stereo not drawn) [drawing 65]: the “Relative amount of reduction in O^6-mG (mean ± SD) % in comparison to NNK-treated control” value in data set [1] was 5.2 ± 13.0%.
